Reference: US5516936A, “Inhibitors of kynureninase” (University of Georgia Research Foundation, Inc., priority 1993, dated 1996)
Entries after “also recorded” stand apart in the source; their conditions may differ. Like-named read-outs stand apart in the source and are kept apart here.

What was measured:
kynureninase [1] = conditions: cited from earlier work
kynureninase [2] = conditions: Takeuchi et al. (1980); cited from earlier work
rat liver kynureninase [3] = target: T1, rat liver kynureninase (Rattus norvegicus, UniProt P70712); assay: Inhibition of rat liver kynureninase (cysteine conjugate β-lyase activity with S-(2-benzothiazolyl)cysteine); format: biochemical; conditions: S-(2-benzothiazolyl)cysteine as substrate
T1 construct: host or cells: rat liver
T1 sequence (P70712 1-464): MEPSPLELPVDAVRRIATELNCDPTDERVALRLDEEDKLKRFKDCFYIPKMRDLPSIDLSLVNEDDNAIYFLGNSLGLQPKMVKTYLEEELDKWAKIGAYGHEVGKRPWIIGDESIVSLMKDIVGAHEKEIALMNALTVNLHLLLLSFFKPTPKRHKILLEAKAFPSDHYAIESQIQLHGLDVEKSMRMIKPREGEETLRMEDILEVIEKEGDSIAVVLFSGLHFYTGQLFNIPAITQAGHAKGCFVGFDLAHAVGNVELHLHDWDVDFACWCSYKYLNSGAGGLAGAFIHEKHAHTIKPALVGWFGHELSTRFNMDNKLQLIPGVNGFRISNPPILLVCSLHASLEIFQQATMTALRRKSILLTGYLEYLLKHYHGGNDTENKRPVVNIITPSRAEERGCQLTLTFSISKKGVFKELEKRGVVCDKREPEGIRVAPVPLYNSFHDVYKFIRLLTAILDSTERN
Procedure: Inhibition of mammalian kynureninase can be measured using several different assays for enzyme activity. Rat liver kynureninase is obtained from homogenization of rat liver, followed by precipitation with (NH4)2 SO4, as described by Stevens, J. L., J. Biol. Chem. (1985) 260:7945-7950, which is incorporated by reference herein. The activity of rat liver kynureninase was assessed by measurement of the cysteine conjugate β-lyase activity, as described by Stevens (supra), with S-(2-benzothiazolyl)cysteine, a nonphysiological chromophoric substrate. Inhibition of kynureninase by the dihydrokynurenine diastereomers was assessed with respect to reaction with that substrate.

Kynureninase [4] = target: T2, Kynureninase (Pseudomonas fluorescens, UniProt P83788); assay: Inhibition of bacterial kynureninase by dihydrokynurenine; format: biochemical; conditions: for inhibition of reaction with L-kynurenine (in words): bacterial kynureninase; for Ki value (comparison in words): compared between dihydrokynurenine diastereomers
T2 construct: Bacterial kynureninase was prepared from cells of Pseudomonas fluorescens; endogenous in cells; partially purified by DEAE-cellulose and ammonium sulfate
T2 sequence (P83788 1-416): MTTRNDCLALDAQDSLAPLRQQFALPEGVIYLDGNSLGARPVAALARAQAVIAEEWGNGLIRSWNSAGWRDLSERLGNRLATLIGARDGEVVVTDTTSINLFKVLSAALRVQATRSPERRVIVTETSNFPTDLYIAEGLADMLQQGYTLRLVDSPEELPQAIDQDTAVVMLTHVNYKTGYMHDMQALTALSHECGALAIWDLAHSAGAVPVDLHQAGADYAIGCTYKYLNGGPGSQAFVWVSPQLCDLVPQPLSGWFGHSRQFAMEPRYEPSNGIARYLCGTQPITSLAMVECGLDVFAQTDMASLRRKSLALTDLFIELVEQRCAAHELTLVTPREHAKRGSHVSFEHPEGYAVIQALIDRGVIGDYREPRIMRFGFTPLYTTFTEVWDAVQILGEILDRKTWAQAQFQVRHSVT
Procedure: As an extension of these mechanistic studies, the reactivities of dihydrokynurenine diastereomers were examined. […] This increased affinity of (αS,γS)-dihydrokynurenine is characteristic of mechanism-based, or "transition-state analogue" inhibitors.
(§1) Bacterial kynureninase was prepared from cells of Pseudomonas fluorescens (ATCC 11250, for example) essentially as described by .Hayaishi and Stanier (1952) J. Biol. Chem. 195:735-740. Cells were grown on a minimal medium containing 0.1% L-tryptophan as the sole carbon and nitrogen source.
(§2) From 100 1 of medium, grown for 18 h at 30° C. 230 g of wet cell paste was obtained. The cells were suspended in 1 of 0.01M potassiumphosphate, pH 7.0, and disrupted by 2 passages through a Manton-Gaulin homogenizer. After centrifugation of the cell extract for 1 h at 10000 g, the enzyme was partially purified by ion-exchange chromatography on DEAE-cellulose and ammonium sulfate precipitation.
Inhibition of kynureninase by dihydrokynurenine was measured by including the potential inhibitor in the enzyme assay mixture (see Example 1 and Tanzawa and Soda (1979) supra) and determining the apparent Km for L-kynurenine (the preferred substrate of bacterial kynurenine) in the absence and presence of the potential inhibitor. Ki values were then calculated using the standard equation: […]
Inhibition of kynureninase by the (αS,γR)- and (αS,γS)-diastereomers of dihydrokynurenine was examined and Ki 's were determined. […] The Ki value for the […] was lower than for the (αS,γR)-diastereomer.

Kynureninase [5] = target: T2, Kynureninase; assay: Reactivity of dihydrokynurenine and L-kynurenine with bacterial kynureninase; format: biochemical; conditions: pH 8.0, 25°; for reactivity with kynureninase (in words): o-aminobenzaldehyde formation at 360 nm
Procedure: as §1
as §2, with “230 g of wet cell paste was obtained.” left out
The reactivity of the two dihydrokynurenines with kynureninase in 0.1M potassium phosphate buffer, pH 8.0, at 25° was examined. Reaction was followed by the appearance of o-aminobenzaldehyde, as determined spectrophotometrically by the increase in absorbance at 360 nm (See Tanizawa and Soda (1979) Biochem. (Tokyo) 86:1199-1209, which is incorporated by reference herein).

cystsine lyase = conditions: cited from earlier work
rat liver kynureninase [6] = target: T1, rat liver kynureninase; conditions: cited from earlier work
rat renal C-S lyase = conditions: kidney slice methodology; cited from earlier work
bacterial kynureninase [7] = conditions: Kishore (1984), cited from earlier work
Kynureninase [8] = target: T2, Kynureninase; assay: Competitive inhibition of kynureninase by S-aryl cysteines and S-aryl cysteine sulfones; format: biochemical; conditions: Table 1; competitive inhibition vs L-kynurenine, pH 7.8, 25° C.; footnote 1: 0.07 is an upper limit; read-out: Ki
Procedure: as §1, §2
Kynureninase activity was measured at 25° C. by following the decrease in absorbance at 360 nm (ε=-4500M^-1 cm^-1). A typical assay mixture contained 0.4 mM L-kynurenine in 0.04M potassium phosphate, pH 7.8, containing 40 μM pyridoxal-5'-phosphate, at 25° C. The reactions of S-aryl cysteines and S-aryl cysteine sulfones with kynureninase were performed using a spectrophotometric coupled assay with lactate dehydrogenase and NADH, by monitoring a decrease in absorbance due to pyruvate formation. A typical assay mixture contained 30 μl lactate dehydrogenase solution (2 mg/ml), 0.1 mM NADH, 40 μM pyridoxal-5'-phosphate, 0.04M tris.HCl buffer, pH 7.8, with varying concentrations of the compounds. The competitive inhibition of these compounds was measured by variation of L-kynurenine concentrations at several fixed values of the inhibitor. Km and Vmax values were calculated by fitting of initial rate data to the Michaelis-Menten equation with ENZFITTER (Elsevier) on a Z-286 personal computer. KI values were determined from the equation:
v=Vmax[S]/ (Km (1+[I]/Ki)+[S]

[9] = test system: cystsine conjugate β-lyase; conditions: cited from earlier work
bacterial kynureninase [10] = conditions: Tanizawa and Soda (1979); cited from earlier work
[11] = substrate: Nc1ccccc1C(=O)C[C@H](N)C(=O)O; assay: Reactivity of dihydrokynurenine and L-kynurenine with bacterial kynureninase; format: biochemical, Pseudomonas fluorescens; conditions: other: L-kynurenine, present work, 30.0 °C

NC(C(=O)O)C(F)(F)C(=O)c1ccccc1 (stereo not drawn) [2,2-difluoro-α-benzoyl alanine, α-amino-β,β-difluoro-γ-oxobenzene butanoic acid]
inhibition of kynureninase (in words) (kynureninase [1]): competitive inhibitor of kynureninase

Nc1c(O)cccc1C(=O)O [3-hydroxyanthranilate, 3-hydroxyanthranilic acid]
inhibition of kynureninase (in words) (kynureninase [2]): inhibit the enzyme

Nc1ccccc1[C@H](O)C[C@H](N)C(=O)O [(αS,γR)-dihydrokynurenine, (αS;γR)-α,2-diamino-γ-hydroxybenzenebutanoic acid]
inhibition of rat liver kynureninase (in words) (rat liver kynureninase [3]): inhibit the reaction of rat liver kynureninase
inhibition of reaction with L-kynurenine (in words) (Kynureninase [4]; listed as (αS,γR)-diastereomer): strongly inhibited; also recorded: competitive inhibitors
Ki value (comparison in words) (Kynureninase [4]): lower
Ki (Kynureninase [4]; competitive with respect to L-kynurenine): 5 µM
rate of reaction relative to L-kynurenine (Kynureninase [5]; 0.1M potassium phosphate buffer): about 5%
reactivity with kynureninase (in words) (Kynureninase [5]): reacted slowly with kynureninase
reactivity with kynureninase (in words) (Kynureninase [5]; listed as (αS,γR)-Dihydrokynurenine): slow substrate

Nc1ccccc1[C@@H](O)C[C@H](N)C(=O)O [(αS,γS)-dihydrokynurenine, (αS,γS)-α,2-diamino-γ-hydroxybenzenebutanoic acid]
inhibition of rat liver kynureninase (in words) (rat liver kynureninase [3]; listed as (αS,γS) diastereomer): stronger competitive inhibitor
inhibition of rat liver kynureninase (in words) (rat liver kynureninase [3]; listed as (αS,δS)): inhibit the reaction of rat liver kynureninase
Ki (rat liver kynureninase [3]; rat liver kynureninase): ~690 µM
binding relative to L-kynurenine (in words) (Kynureninase [4]): binds about more tightly than does L-kynurenine
inhibition of reaction with L-kynurenine (in words) (Kynureninase [4]): competitive inhibitor of the enzyme
inhibition of reaction with L-kynurenine (in words) (Kynureninase [4]; listed as (αS,γS)-diastereomer): strongly inhibited; also recorded: competitive inhibitors
Ki value (comparison in words) (Kynureninase [4]): lower
reactivity with kynureninase (in words) (Kynureninase [5]): not a substrate for the kynureninase
reactivity with kynureninase (in words) (Kynureninase [5]; listed as (αS,γS) diastereomer): unreactive
reactivity with kynureninase (in words) (Kynureninase [5]; listed as (αS,γS)-diastereomer): No significant reaction

NO [H2 NOH]
inhibition of cystsine lyase (in words) (cystsine lyase): significantly inhibited

N[C@@H](CSc1nc2ccccc2s1)C(=O)O [S-2-(benzothiazolyl)-L-cysteine]
cleavage by rat liver kynureninase (in words) (rat liver kynureninase [6]): cleavage of S-2-(benzothiazolyl)-L-cysteine to give 2-mercaptobenzothiazole, pyruvate and ammonia

N[C@@H](CSc1c([N+](=O)[O-])cccc1[N+](=O)[O-])C(=O)O [S-(2,6-dinitrophenyl)-L-cysteine]
inhibition of C-S lyase (in words) (rat renal C-S lyase): inhibit

N[C@@H](CSc1ccccc1[N+](=O)[O-])C(=O)O [S-(2-nitrophenyl)-L-cysteine]
Ki (bacterial kynureninase [7]): 100 µM
inactivation of kynureninase (in words) (bacterial kynureninase [7]): inactivates kynureninase; also recorded: most efficient suicide substrate at low concentrations; also recorded: suicide inhibitor of kynureninase
reaction with kynureninase (in words) (bacterial kynureninase [7]): react with kynureninase to give pyruvate and ammonia
inactivation of kynureninase (in words) (bacterial kynureninase [7]; listed as S-(2-nitrophenyl)-L-cystsine): inactivated kynureninase
Ki (Kynureninase [8]): 100 µM
inhibition of C-S lyase (in words) (rat renal C-S lyase): inhibit

N[C@@H](CSc1ccc([N+](=O)[O-])cc1)C(=O)O [S-(4-nitrophenyl)-L-cysteine]
inhibition of C-S lyase (in words) (rat renal C-S lyase): inhibit

N[C@@H](CSCc1ccccc1)C(=O)O [S-benzyl-L-cysteine]
β-lyase-mediated metabolism (in words) [9]: cleaved to give pyruvate

NOCC(=O)O [aminooxyacetic acid]
inhibition of β-lyase (in words) [9]: inhibitor of the β-lyase
inhibition of cystsine lyase (in words) (cystsine lyase): most inhibitory derivative tested

Nc1ccccc1C(=O)O [anthranilic acid]
inhibition of kynureninase (in words) (kynureninase [2]): inhibit the enzyme
inhibition of bacterial kynureninase (in words) (bacterial kynureninase [10]): inhibitors

B1: Kynureninase (Pseudomonas fluorescens) (protein)
chain: T2 sequence (P83788 1-416)
notes: Bacterial kynureninase was prepared from cells of Pseudomonas fluorescens; endogenous in cells; partially purified by DEAE-cellulose and ammonium sulfate
Km [11]: 25 µM
